Assay results as given in PubChem BioAssay (NCI).
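Step 1: Grow cells in 96-well plates. Step 2: Expose to compound for 48 hours at 5 concentrations. Step 3: Interpolate endpoints linearly; if unreached, use highest concentration. At the TGI there is no net growth.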

What was measured:
Experiment in all cases: NCI tumour cell line growth inhibition, 48 h
786-0 renal = tested on: 786-0 renal
A498 renal = tested on: A498 renal
A549 NSCLC = tested on: A549 NSCLC
ACHN renal = tested on: ACHN renal
CAKI-1 renal = tested on: CAKI-1 renal
CCRF-CEM leukemia = tested on: CCRF-CEM leukemia
COLO 205 colon = tested on: COLO 205 colon
DLD-1 colon = tested on: DLD-1 colon
DMS 114 small cell lung = tested on: DMS 114 small cell lung
DMS 273 small cell lung = tested on: DMS 273 small cell lung
EKVX NSCLC = tested on: EKVX NSCLC
HCC-2998 colon = tested on: HCC-2998 colon
HCT-116 colon = tested on: HCT-116 colon
HCT-15 colon = tested on: HCT-15 colon
HOP-18 NSCLC = tested on: HOP-18 NSCLC
HOP-92 NSCLC = tested on: HOP-92 NSCLC
HT29 colon = tested on: HT29 colon
IGROV1 ovarian = tested on: IGROV1 ovarian
K-562 leukemia = tested on: K-562 leukemia
KM12 colon = tested on: KM12 colon
KM20L2 colon = tested on: KM20L2 colon
LOX IMVI melanoma = tested on: LOX IMVI melanoma
LXFL 529 NSCLC = tested on: LXFL 529 NSCLC
M14 melanoma = tested on: M14 melanoma
M19-MEL melanoma = tested on: M19-MEL melanoma
MALME-3M melanoma = tested on: MALME-3M melanoma
MOLT-4 leukemia = tested on: MOLT-4 leukemia
NCI-H226 lung = tested on: NCI-H226 lung
NCI-H23 lung = tested on: NCI-H23 lung
NCI-H460 lung = tested on: NCI-H460 lung
NCI-H522 lung = tested on: NCI-H522 lung
OVCAR-3 ovarian = tested on: OVCAR-3 ovarian
OVCAR-4 ovarian = tested on: OVCAR-4 ovarian
OVCAR-5 ovarian = tested on: OVCAR-5 ovarian
OVCAR-8 ovarian = tested on: OVCAR-8 ovarian
RXF 393 renal = tested on: RXF 393 renal
SF-268 CNS = tested on: SF-268 CNS
SF-295 CNS = tested on: SF-295 CNS
SF-539 CNS = tested on: SF-539 CNS
SK-MEL-2 melanoma = tested on: SK-MEL-2 melanoma
SK-MEL-28 melanoma = tested on: SK-MEL-28 melanoma
SK-MEL-5 melanoma = tested on: SK-MEL-5 melanoma
SK-OV-3 ovarian = tested on: SK-OV-3 ovarian
SN12C renal = tested on: SN12C renal
SNB-19 CNS = tested on: SNB-19 CNS
SNB-75 CNS = tested on: SNB-75 CNS
SNB-78 CNS = tested on: SNB-78 CNS
SW-620 colon = tested on: SW-620 colon
TK-10 renal = tested on: TK-10 renal
U251 CNS = tested on: U251 CNS
UACC-257 melanoma = tested on: UACC-257 melanoma
UACC-62 melanoma = tested on: UACC-62 melanoma
UO-31 renal = tested on: UO-31 renal
HL-60(TB) leukemia = tested on: HL-60(TB) leukemia
HOP-62 NSCLC = tested on: HOP-62 NSCLC
RPMI-8226 leukemia = tested on: RPMI-8226 leukemia
XF 498 CNS = tested on: XF 498 CNS
SR leukemia = tested on: SR leukemia

Measured: TGI

N#CC1(Cc2ccccc2[N+](=O)[O-])c2ccccc2C2C(N1C(=O)c1ccccc1)C2(Cl)Cl (stereo not drawn)
not listed: HL-60(TB) leukemia | HOP-62 NSCLC | RPMI-8226 leukemia | XF 498 CNS | SR leukemia
> 100 µM: all other assays above

O=C1CCC2(c3ccc(F)cc3)Nc3ncccc3N12 (stereo not drawn)
not listed: DMS 114 small cell lung | DMS 273 small cell lung | HCT-116 colon | HOP-18 NSCLC | SK-OV-3 ovarian | SNB-19 CNS | SR leukemia
> 100 µM: all other assays above

CC1(C)c2ccccc2C(C)(C)C(C(=O)Nc2ccccc2)C1C(=O)O (stereo not drawn)
not listed: CAKI-1 renal | HCT-15 colon | IGROV1 ovarian | NCI-H460 lung | OVCAR-4 ovarian | XF 498 CNS | SR leukemia
> 100 µM: all other assays above

O=C1C(Cl)N(c2ccc(Cl)cc2Cl)C1c1c[nH]c2ccccc12 (stereo not drawn)
not listed: 786-0 renal | A498 renal | ACHN renal | CAKI-1 renal | DLD-1 colon | DMS 273 small cell lung | HCC-2998 colon | HCT-15 colon | HOP-18 NSCLC | LOX IMVI melanoma | NCI-H226 lung | OVCAR-5 ovarian | SNB-78 CNS
> 100 µM: all other assays above

O=C(c1cccs1)N(C(=S)N1CCN(c2ccccc2)CC1)C1CCCCC1
not listed: A498 renal | EKVX NSCLC | HCC-2998 colon | NCI-H226 lung | XF 498 CNS
> 100 µM: all other assays above
